Assay results: US11773379B2, “Enzymes and reagents for measurement of short chain fatty acids” (SYSMEX CORPORATION, priority 2018, dated 2023)

B1: ToBK2: Thermosediminibacter oceani-derived butyrate kinase prepared in Reference Example 4 (SEQ ID NO: 21, His tag) (protein, listed as Thermosediminibacter oceani)
chain: MEKFRILAINPGSTSTKISIFHGEEEVFTENIVHDYEELKKFKNVIEQEGYRYEAILNALAARGYSLDEIDVVVARGGILRPVKAGTYRINDLMLEDLKDAVAGEHASNVAAFIAHRIGAEKGIPAYIVDPVSVDEMEDVARISGLDGIERKSLSHALNIRRVIYKVSEKFGKDPGELNFIVAHLGGGISIGAIRRGQMVDVESANCEGPFSPERSGGLPILELIDLCFSGRFTKDELKRRLIQEGGVYSYLGTKDIREVEERTRSGDKKAALILEAMVYQIAKCIGQMATVLKGDVDFIILTGGIAKSDYISECIADRVKFIAPVERVPGEEEMKALAEAACRVMTGREKVLDYGGGE
modifications: His tag
B2: BKII: recombinant butyrate kinase derived from Acetoanaerobium sticklandii obtained in Reference Example 1 (T7 tag and His tag; SEQ ID NO: 17) (protein, listed as Acetoanaerobium sticklandii)
chain: MEGTMSTYKILAINPGSTSTKIAVYENETQIMEKTLRHSTEEINKYEKIFDQFEFRKNVIVDAVSEAGIAIEELDAVVGRGGLLKPIKGGTYEVSDELIAGLKEPYLGEHASNLGGIIAKEIADAALAPSFIVDPVVVDEMNDVARISGMPEIPRFSIFHALNQKATARRFASEIGKSYEDINVIVAHMGGGVSVGAHEKGRVIDVNNALDGEGPFSPERAGGLPVGDLAKLCFSGKYTHAQIKKLLKGEGGIVAYLGTNDARDVEKMIAEGDEKAKLIYEAMAYQVAKEIGSCATVLKGKVDAIILTGGIAYSEMITTWIKERVSFIADVKIYAGEDEMSALAQGALRVLREEEKPQRYEA
modifications: T7 tag and His tag
B3: StBK: Symbiobacterium thermophilum-derived butyrate kinase prepared in Reference Example 6 (SEQ ID NO: 25, His tag) (protein, listed as Symbiobacterium thermophilum)
chain: MQQRLLIINPGSTSTKIAVYDDDSPLFAETLRHSAADLACFRDVAAQFPFRRDLILEALDAHGVSLSSLTAVVGRGGLLRPVRGGTYRVDAAMLAELSRAAHGEHASNLGALLAHEIAQAAGGVPAFIVDPVVVDELEPVARLTGLPEMPRRSVFHALNQKAVARRAAADLGRAYTEVNLVVVHLGGGISVGAHRRGRVVDVNNALDGEGPMAPERAGTVPSLGLVHLAFSWQHTLREVGRMLVGRGGLVAHVGTNDARRVEERIAAGDEAARVAYRAMAYQVAKEVGRAAVALGGQVDRIVLTGGLAHSEMLTGWIAEQVEWIAPVAVYPGEDEMAALAAGALRVLRGEEPAQVYGEAGE
modifications: His tag
B4: NtBK: Natranaerobius thermophilus-derived butyrate kinase prepared in Reference Example 5 (SEQ ID NO: 23, His tag) (protein)
chain: MKQEHRLLVINPGSTSTKIAVYEGESPLIEKKLEHSPEELNKFQDIIDQYDFRKDSILNFLDEQGMNFNKLDAVVARGGLLKPISGGTFKVNDLMVEHLRQGYQGEHASNLGGIIAKEISNQLDIPAYIVDPVVVDELQDIARISGFEPIERKSIFHALNHKAVARKAAAQLGKKYEEANLVVVHLGGGISVGAHNCGDVIDVNNALDGEGPFSPERSGGLPNGDLVRYIDEHNLTWKELKRQLVGNGGLVSYLDTNDGKKVQEMIQSGDEKAEKVYEAMIYQIAKEIGSCAVVLKGELDAIVLTGGLAHDEYLVSRMKEYIKFLGEILVFPGEDEMQSLAEGGLRVLRNEETPKDYS
modifications: His tag; Natranaerobius thermophiles

What was measured:
[1] = system: BKII (recombinant butyrate kinase derived from Acetoanaerobium sticklandii); assay: Substrate specificity of butyrate kinase BKII; assay type: biochemical; conditions: 100 mM sodium salt of fatty acid in second reagent, pH 7.5
Experimental: (§1) Various fatty acids shown in Table 1 were used as a substrate. The measurement was performed using a 7180 type Hitachi automatic analyzer (Hitachi High-Tech Corporation). […] PHARMA CORPORATION) • 5 U/mL ADP-HK II (ADP dependent hexokinase: […] PHARMA CORPORATION) […] In the composition of the second reagent, “sodium salts of various fatty acids” means any one kind of sodium caprylate, sodium caproate, sodium valerate, sodium isovalerate, sodium butyrate, sodium isobutyrate, sodium propionate, sodium acetate, sodium lactate, and sodium succinate. Isobutyric acid, valeric acid, isovaleric acid, caproic acid, and octanoic acid, which are commercially available fatty acids and are not sold as sodium salts, were adjusted to pH 7.5 with sodium hydroxide. […] [Measurement Parameters of Automatic Analyzer] • Analysis method: […]

[2] = system: BKIII (recombinant butyrate kinase derived from Thermosediminibacter oceani); assay: Substrate specificity of butyrate kinase BKIII; assay type: biochemical; conditions: 100 mM sodium salt of fatty acid in second reagent, pH 7.5
Experimental: as §1

[3] = Thermal stability of recombinant butyrate kinase (remaining activity); assay type: physicochemical; conditions: for remaining activity: after incubating at 65° C. for 30 minutes, 50 mM potassium phosphate pH 7, 0.1% TN-100, about 1 mg/mL
Experimental: The thermal stability of BKII was examined based on the remaining activity after incubating approximately 0.3 mg/mL BKII at each temperature of 4 to 50° C. for 30 minutes in 10 mM Tris-HCl buffer (pH 7.5) containing 100 mM KCl. The thermal stability of BKIII was examined based on the remaining activity after incubating approximately 1 mg/mL BKIII in 50 mM potassium phosphate buffer (pH 7) containing 0.1% TN-100 (ADEKA Corporation) at each temperature of 4 to 80° C. for 30 minutes. The remaining activity was measured in the same manner as in Example 1. From FIGS. 12 and 13, the thermal stability (remaining activity) of BKII was 50% or more after treatment at 37° C. for 30 minutes, and the thermal stability (remaining activity) of BKIII was 85% or more after treatment at 70° C. for 30 minutes.
The thermal stability of BKIII, Thermosediminibacter oceani-derived butyrate kinase (ToBK2) prepared in Reference Example 4, Natranaerobius thermophilus-derived butyrate kinase (NtBK) prepared in Reference Example 5, and Symbiobacterium thermophilum-derived butyrate kinase (StBK) prepared in Reference Example 6 were compared. Specifically, each butyrate kinase was added to a 50 mM potassium phosphate buffer (pH 7) containing 0.1% TN-100 so that the concentration is about 1 mg/mL, and the remaining activity after incubating at 65° C. for 30 minutes was measured. The remaining activity was measured in the same manner as in Example 1.

[4] = Measurement of recombinant butyrate kinase activity (ADP-HK/G6PDH coupled, NADPH at 340 nm); specific activity, Km and Vmax; assay type: biochemical; conditions: with respect to butyric acid
Experimental: The enzymatic activity of BKII and BKIII with respect to butyric acid was measured based on the amount of ADP produced. In the Example 1, ADP produced by the action of butyrate kinase is used to produce NADPH by the action of ADP dependent hexokinase and glucose-6-phosphate dehydrogenase (see FIG. 1), and the amount of ADP produced was measured based on the change in absorbance at 340 nm due to the increase in NADPH. The measurement was performed using a 7080 type Hitachi automatic analyzer (Hitachi High-Tech Corporation).
[Composition of First Reagent] • 50 mM Tris-HCl (pH 7.5) (Sigma-Aldrich Co. LLC.) • 2 mM ATP (pH 7.5) (Oriental Yeast Co., Ltd.) • 2 mM MgCl2 (FUJIFILM Wako Pure Chemical Corporation) • 20 mM glucose (FUJIFILM Wako Pure Chemical Corporation) • 100 mM sodium butyrate (FUJIFILM Wako Pure Chemical Corporation) • 1 mM NADP (FUJIFILM Wako Pure Chemical Corporation) • 5 U/mL G6PDH II (Glucose-6-phosphate dehydrogenase: T-51, ASAHI KASEI PHARMA CORPORATION) • 5 U/mL ADP-HK II (ADP dependent hexokinase: T-92, ASAHI KASEI PHARMA CORPORATION) • 0.1% TN-100 (ADEKA Corporation)
[Composition of BKII Diluent] • 50 mM Tris-HCl (pH 7.5) (Sigma-Aldrich Co. LLC.) • 10 mM KCl (FUJIFILM Wako Pure Chemical Corporation)
[Composition of BKIII Diluent] • 50 mM Potassium phosphate buffer (pH 7.0) (Sigma-Aldrich Co. LLC.) • 0.1% TN-100 (ADEKA Corporation)
[Measurement Parameters of Automatic Analyzer] • Analysis method: Rate-A • Measurement wavelength (secondary/primary): 700 nm/340 nm • Reaction time: 5 minutes • Photometry point: 11 to 16 • Sample volume: 3 μL • First reagent amount: 150 μL […]
The sample was dispensed into a cuvette, then the first reagent was added and stirred. […] The cuvette was irradiated with light and the change in absorption at 340 nm was measured between about 200 seconds and about 296 seconds after the addition of the first reagent. […] The activity value (U/mL) of butyrate kinase was calculated from the following formula by defining the amount of enzyme that phosphorylates 1 μmol of butyric acid per minute as 1 U and using the value of the absorbance change per minute (ΔmAbs/min) calculated from the absorbance at the photometry point and the millimole extinction coefficient (c=6.3) of […] at 340 nm. […]
The specific activity (U/mg) is the activity value per 1 mg of enzyme. The protein (enzyme) concentrations of the BKII solution obtained in Reference Example 1 and the BKIII solution obtained in Reference Example 3 were quantified by the Bradford method, and the specific activities of BKII and BKIII with respect to butyric acid under the measurement conditions of Example 1 were calculated. […]
The Km and Vmax of BKII and BKIII with respect to butyric acid under the measurement conditions of Example 1 were determined by Lineweaver-Burk plot.

Molecule	substrate specificity, relative value when the activity value with respect to butyric acid is 100 [1]	substrate specificity, relative value when the activity value with respect to butyric acid is 100 [2]	also measured
CCCCCC(=O)O [Caproic acid]	22%	56%	–
CC(C)CC(=O)O [Isovaleric acid]	133%	148%	–
CC(O)C(=O)O (stereo not shown) [Lactic acid]	0%	0%	–
CCCCCCCC(=O)O [Octanoic acid]	0%	0%	–
CCC(=O)O [Propionic acid]	62%	41%	–
O=C(O)CCC(=O)O [Succinic acid]	2%	0%	–
CCCCC(=O)O [Valeric acid]	161%	138%	–
B1	–	–	remaining activity [3]: 60.5%
B2	–	–	thermal stability (remaining activity) ([3]; after treatment at 37° C. for 30 minutes, 10 mM Tris-HCl pH 7.5, 100 mM KCl): ≥ 50%; activity value of butyrate kinase ([4]; enzyme solution, 37° C., Tris-HCl pH 7.5): about 340 U/mL; Km ([4]; Lineweaver-Burk plot): 4.2 mM; Vmax ([4]; Lineweaver-Burk plot): 1100 U/mg; specific activity ([4]; measurement conditions of Example 1, protein by Bradford method): about 337 U/mg
B3	–	–	remaining activity [3]: 48.7%
B4	–	–	remaining activity [3]: 14.7%
